These results are taken from patent publication US3953449A, “2-(4-M-CF3 or -SCF3 phenylpiperazino)-ethyl benzoates” (priority 1973, dated 1976).

As a reminder, the LD50 is the dose expected to kill half of the subjects tested. What is called ED50 is the dose that gives a 50% effect, or the effect in half of the subjects.

A short description of series [1]: Acute toxicity, 50% lethal dose (LD50), oral administration, mice. The note with it: mouse, in vivo, Swiss mice of the CDl strain, both sexes, calculated graphically. The procedure: The tests were carried out on Swiss mice of the CDl strain, of both sexes, and the 50% lethal doses (LD50) were calculated graphically.
For series [2], the system named is pain induced in CDl mice by the intraperitoneal injection of acetic acid. Put plainly: Koster test: analgesic effect against pain induced by intraperitoneal injection of acetic acid, oral administration. The format is in vivo. The following applies: Mus musculus, read-out: Analgesic activity, Koster test ED50 (50% effective dose). The source says:
The analgesic effect was investigated in accordance with two conventional experimental procedures.

[3] abbreviates: oral administration, CDl mice, acetic acid i.p.

Like-named read-outs stand apart in the source and are kept apart here. Where only a bound is given, the exact number is not on record here.

As for `CC(=O)OCCN1CCN(c2cccc(C(F)(F)F)c2)CC1` [SLB 093, 2-(4-m-Trifluoromethylphenylpiperazino)-ethyl acetate], the LD50 in series [1] was 925 mg/kg. The ED50 in series [2] (setting [3]) is 3.5 mg/kg.
For `O=C(OCCN1CCN(c2cccc(C(F)(F)F)c2)CC1)c1ccccc1` [SLB 108, 2-(4-m-Trifluoromethylphenylpiperazino)-ethyl benzoate], in series [1], the LD50 was greater than 4000 mg/kg. Further, the ED50 in series [2] (po) turned out to be 10 mg/kg.
Take `CCCC(CCC)C(=O)OCCN1CCN(c2cccc(C(F)(F)F)c2)CC1` [SLB 198, 2-(4-m-Trifluoromethylphenyl-piperazino)-ethyl 2-n-propyl-pentanoate]: the LD50 in series [1] was 2200 mg/kg. Also, the ED50 in series [2] (setting [3]) was determined as 4.3 mg/kg.
Regarding `COc1cc(C(=O)OCCN2CCN(c3cccc(C(F)(F)F)c3)CC2)cc(OC)c1OC` [SLB 169, 2-(4-m-Trifluoromethylphenylpiperazino)-ethyl 3,4,5-trimethoxybenzoate], in series [1], the LD50 is 2200 mg/kg. The ED50 in series [2] (setting [3]) was 15 mg/kg.
Turning to `Cc1c(N(C)C)c(=O)n(-c2ccccc2)n1C` [Amidopyrine, reference compound], in series [2] (setting [3]), the ED50 was 40 mg/kg.
